Measurements from patent publication US12497411B2, “Muscarinic acetylcholine receptor subtype 4 antagonists in the treatment of anemia” (COLD SPRING HARBOR LABORATORY, priority 2019, dated 2025).

What was measured:
[1] = test system: Human CD34+ hematopoietic stem and progenitor cells; assay: Human CD34+ cell culture and counting; assay type: cell-based; conditions: human CD34+ HSPC culture, oxyphenonium bromide (200 μM)
Protocol: Human CD34+ hematopoietic stem and progenitor cells (HSPCs) were cultured in StemSpan™ SFEM medium containing rhSCF (20 ng/ml), rhIL-3 (5 ng/ml) and EPO (1 U/ml) with various concentrations of dexamethasone and oxyphenonium. Total numbers of cells were counted using a flow-cytometer. For colony formation assay, day 8 cultured cells were plated into methylcellulose medium MethoCult™ H4034 Optimum and BFU-E colonies were counted after 13 days.

[2] = test system: Mouse BFU-Es; assay: BFU-E colony formation assay; assay type: cell-based; conditions: Day 6 cultured BFU-Es plated on methylcellulose, colonies counted 9 days later
[3] = test system: Mouse BFU-Es; assay: Ter119 antibody staining, flow cytometry; assay type: cell-based; conditions: with or without oxyphenonium bromide, after 12 days of culture
[4] = test system: Mouse BFU-Es; assay: Primary mouse BFU-E culture assay (cell expansion); assay type: cell-based
Protocol: (§1) Primary mouse BFU-Es were isolated from mouse embryonic day 14.5 (E14.5) fetal liver and cultured in StemSpan serum-free expansion medium, and the numbers of cells formed were counted during culture. BFU-Es were infected with either viruses encoding control shRNA or viruses encoding shRNAs targeting Chrm4, and numbers of GFP+ cells formed during culture were counted. DMSO or 25 mg/kg oxyphenonium bromide was intraperitoneally injected into the hemolysis mouse model, Mx1-cre Srsf2 P95H/WT MDS mouse model, and aging mouse model. Complete blood count (CBC) was performed after compound injection. CREB ChIP-Seq was performed on BFU-Es after culture with 100 μM oxyphenonium bromide for 45 minutes. RNA-Seq was performed in BFU-Es after being cultured with DMSO or oxyphenonium bromide for 3 days.
BFU-Es were isolated from mouse embryonic day 14.5 fetal liver using fluorescence-activated cell sorting (FACS) method previously described (Flygare et al., Blood 117, 3435-3444 (2011)). BFU-Es were cultured in StemSpan SFEM II medium containing rmSCF (100 ng/ml), EPO (2 U/ml), rmIGF-1 (40 ng/ml), dexamethasone (1 nmol/ml or 10 nmol/ml), oxyphenonium bromide ([…]), and orphenadrine citrate (1 μmol/ml).
BFU-Es were isolated from mouse embryonic day 14.5 fetal liver using fluorescence-activated cell sorting (FACS) method. BFU-Es were cultured in StemSpan SFEM II medium containing rmSCF (100 ng/ml), EPO (2 U/ml), rmIGF-1 (40 ng/ml), dexamethasone (1 nM), together with either DMSO, PCS1055 (5 nM), or PD102807 (3 nM). Numbers of cell formed were counted during in vitro culture.
FIGS. 7 and 8 show the results of the primary BFU-E culture assay. […] Highly purified BFU-Es were isolated as lin-Ter-119-CD16/CD32-Sca-1-CD41-c-Kit+CD71/Cd24a^10% low population using the fluorescence-activated cell sorting (FACS) method. BFU-Es were cultured in medium containing rmSCF, EPO, and rmIGF-1, in the presence of PD102807 or Compounds A-K at indicated concentrations.

[5] = test system: phosphorylated CREB in BFU-Es; assay: Phospho-CREB immunofluorescence; assay type: cell-based, mouse; conditions: 100 μM oxyphenonium, 45 to 60 min
Protocol: Freshly isolated BFU-Es were serum starved for 1 hour and treated with either DMSO or 100 μM oxyphenonium for 45 to 60 min. 10^4 cells were collected on Poly L-Lysine coated slides using cytospin. Cells were fixed with 2% paraformaldehyde for 15 min, followed with permeabilization using 0.1% Triton X-100 for 15 min and with 2% BSA solution block for 30 min. Cells were incubated with phospho-CREB antibody (phospho […], Abeam, ab32096, 1:250) in 2% BSA for 1 hour and then incubated with FITC conjugated goat anti-mouse secondary antibody (Abcam, ab97022, 1:500) and FITC conjugated goat anti-rabbit secondary antibody (Abcam, ab97050, 1:500) in 2% BSA solution for 30 min. Cells were then incubated with DAPI for 5 min and then mounted with mounting solution.

[6] = test system: hemolysis, MDS, and aging mouse models; assay: Hemolysis, MDS and aging anemia mouse models (oxyphenonium bromide); assay type: in vivo; conditions: 25 mg/kg intraperitoneally
Protocol: as §1
4-6 weeks old C57bl/6 mice were intraperitoneally injected with either control DMSO or compound every day for 3 days. On day 4, mice were intraperitoneally injected with 60 mg/kg PHZ. Mice were then intraperitoneally injected with either compound or control DMSO every day for another 3 days. Peripheral blood samples were collected retro-orbitally using heparinized capillary tubes in blood collection tubes with K2-EDTA. CBC was performed using Hemavet® 950. […]

[7] = biological target: T1, human recombinant CHRM2 receptor (Homo sapiens, UniProt P08172); assay: Radioligand binding assay, CHRM2; conditions: [3H]AF-DX 384 (2 nM), CHO cell membranes, 60 minutes at room temperature; read-out: Ki M2
T1 construct: expressed in transfected cells; host or cells: CHO cells (membranes)
T1 sequence (P08172 1-466): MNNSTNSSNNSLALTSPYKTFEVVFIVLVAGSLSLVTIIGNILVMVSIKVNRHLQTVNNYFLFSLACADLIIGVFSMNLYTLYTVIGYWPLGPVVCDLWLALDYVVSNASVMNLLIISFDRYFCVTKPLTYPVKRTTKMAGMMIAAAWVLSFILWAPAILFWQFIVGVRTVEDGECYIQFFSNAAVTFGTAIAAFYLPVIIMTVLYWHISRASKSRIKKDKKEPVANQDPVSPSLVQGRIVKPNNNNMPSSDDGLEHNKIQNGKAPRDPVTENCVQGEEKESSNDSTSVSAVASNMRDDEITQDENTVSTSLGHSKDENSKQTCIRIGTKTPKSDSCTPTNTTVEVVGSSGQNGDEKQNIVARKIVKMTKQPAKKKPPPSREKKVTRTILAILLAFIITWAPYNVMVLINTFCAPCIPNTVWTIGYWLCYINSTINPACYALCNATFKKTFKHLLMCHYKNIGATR
Protocol: (§2) PD102807 and Compounds A-K at concentrations of 1×10^−9 M, 1×10^−8 M, 1×10^−7 M, 1×10^−6 M, and 1×10^−5 M were tested in standard binding assays with radioligands and cell membranes with receptors. Compound binding was calculated as a percent inhibition of the binding of a radioactively labeled ligand specific for each target, and the Ki values were determined. For CHRM1, the binding assay was performed using [^3H]pirenzepine (2 nM) as a radioligand and membranes of CHO cells with human recombinant CHRM1 receptor. The incubation time was 60 minutes at room temperature. For CHRM2, the binding assay was performed using [^3H]AF-DX 384 (2 nM) as a radioligand and membranes of CHO cells with human recombinant CHRM2 receptor. The incubation time was also 60 minutes at room temperature. For CHRM3, the binding assay was performed using [^3H]4-DAMP (0.2 nM) as a radioligand and membranes of CHO cells with human recombinant CHRM3 receptor. The incubation time was also 60 minutes at room temperature. For CHRM4, the binding assay was performed using [^3H]4-DAMP (0.2 nM) as a radioligand and membranes of CHO cells with human recombinant CHRM4 receptor. The incubation time was also 60 minutes at room temperature. For CHRM5, the binding assay was performed using [^3H]4-DAMP (0.3 nM) as a radioligand and membranes of CHO cells with human recombinant CHRM5 receptor. The incubation time was also 60 minutes at room temperature.

[8] = biological target: T2, human recombinant CHRM3 receptor (Homo sapiens, UniProt P20309); assay: Radioligand binding assay, CHRM3; conditions: [3H]4-DAMP (0.2 nM), CHO cell membranes, 60 minutes at room temperature; read-out: Ki M3
T2 construct: expressed in transfected cells; host or cells: CHO cells (membranes)
T2 sequence (P20309 whole entry): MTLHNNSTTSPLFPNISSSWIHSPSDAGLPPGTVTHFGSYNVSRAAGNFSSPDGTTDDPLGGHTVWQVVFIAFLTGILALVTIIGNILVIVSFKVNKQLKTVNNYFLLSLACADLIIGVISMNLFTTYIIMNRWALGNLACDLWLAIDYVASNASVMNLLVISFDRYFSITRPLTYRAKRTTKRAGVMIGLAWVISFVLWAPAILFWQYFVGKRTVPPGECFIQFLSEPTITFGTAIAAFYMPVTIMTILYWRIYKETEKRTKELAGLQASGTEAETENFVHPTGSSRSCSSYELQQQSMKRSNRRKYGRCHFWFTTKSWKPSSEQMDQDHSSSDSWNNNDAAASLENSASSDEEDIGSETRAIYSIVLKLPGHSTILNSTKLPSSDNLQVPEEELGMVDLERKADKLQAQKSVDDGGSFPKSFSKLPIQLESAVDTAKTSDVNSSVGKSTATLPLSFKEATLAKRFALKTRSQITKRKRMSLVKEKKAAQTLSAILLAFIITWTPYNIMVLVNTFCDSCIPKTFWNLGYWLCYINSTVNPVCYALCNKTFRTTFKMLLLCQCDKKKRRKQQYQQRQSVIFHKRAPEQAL
Protocol: as §2

[9] = biological target: T3, CHRM4 (Homo sapiens, UniProt P08173); assay: Radioligand binding assay, CHRM4; set-up: expressed in transfected cells; host or cells: CHO cells (membranes); conditions: [3H]4-DAMP (0.2 nM), CHO cell membranes, 60 minutes at room temperature; read-out: Ki M4
T3 sequence (P08173 1-479): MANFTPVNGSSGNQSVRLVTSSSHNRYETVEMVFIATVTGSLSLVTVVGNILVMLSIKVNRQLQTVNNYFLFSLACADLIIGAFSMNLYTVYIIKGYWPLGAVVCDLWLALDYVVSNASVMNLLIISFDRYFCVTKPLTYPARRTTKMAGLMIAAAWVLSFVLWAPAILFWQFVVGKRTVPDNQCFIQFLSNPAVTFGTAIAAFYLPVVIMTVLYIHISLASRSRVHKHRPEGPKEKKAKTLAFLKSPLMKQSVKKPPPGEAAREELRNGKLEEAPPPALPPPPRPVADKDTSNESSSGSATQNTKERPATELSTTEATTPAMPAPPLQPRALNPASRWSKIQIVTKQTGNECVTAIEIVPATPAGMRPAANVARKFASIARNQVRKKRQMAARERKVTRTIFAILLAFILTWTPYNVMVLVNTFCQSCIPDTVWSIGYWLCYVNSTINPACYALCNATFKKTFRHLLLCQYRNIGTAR
Protocol: as §2

[10] = biological target: T4, human recombinant CHRM1 receptor (Homo sapiens, UniProt P11229); assay: Radioligand binding assay, CHRM1; conditions: [3H]pirenzepine (2 nM), CHO cell membranes, 60 minutes at room temperature; read-out: Ki M1
T4 construct: expressed in transfected cells; host or cells: CHO cells (membranes)
T4 sequence (P11229 1-460): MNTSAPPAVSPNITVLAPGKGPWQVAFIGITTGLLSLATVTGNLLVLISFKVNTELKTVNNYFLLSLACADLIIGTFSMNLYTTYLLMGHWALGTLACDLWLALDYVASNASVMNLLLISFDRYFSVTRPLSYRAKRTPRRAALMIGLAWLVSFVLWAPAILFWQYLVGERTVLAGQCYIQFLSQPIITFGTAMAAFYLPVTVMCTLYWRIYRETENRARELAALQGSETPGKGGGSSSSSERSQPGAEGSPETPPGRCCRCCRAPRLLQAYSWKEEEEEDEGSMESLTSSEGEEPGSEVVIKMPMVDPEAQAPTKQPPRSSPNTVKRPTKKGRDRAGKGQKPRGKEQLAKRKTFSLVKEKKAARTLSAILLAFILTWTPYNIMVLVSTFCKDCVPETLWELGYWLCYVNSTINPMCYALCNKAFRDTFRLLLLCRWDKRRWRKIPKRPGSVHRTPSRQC
Protocol: as §2

[11] = Pharmacokinetic profile (plasma) and brain penetration assay; assay type: in vivo, mouse; conditions: mice, intraperitoneal injection, plasma and brain by LC-MS/MS
Protocol: PD102807 and Compounds A and B were intraperitoneally injected into mice. Blood was collected at each time point, and transferred tubes containing anticoagulant were centrifuged to obtain plasma. Brain samples were collected each time point and then quick frozen in liquid nitrogen and kept at −75±15° C. Brain samples were homogenized. Concentrations of PD102807 and Compound A and B in the plasma and brain samples were analyzed using the LC-MS/MS method. […] Compound G was intraperitoneally injected into mice. Blood was collected at each time point, and transferred tubes containing anticoagulant were centrifuged to obtain plasma. Brain samples were collected each time point and then quick frozen in liquid nitrogen and kept at −75±15° C. Brain samples were homogenized. Concentrations of Compound G in the plasma and brain samples were analyzed using the LC-MS/MS method.

Row | Ki [7] | Ki [8] | Ki [9] | Ki [10] | brain penetration in comparison to PD102807 [11] | Structure (SMILES) | expansion of erythroid cells [1] | formation of BFU-E colonies [2] | percentage of Ter119+ differentiated cells [3] | production of more erythrocytes from BFU-E ([4]; 100 μM oxyphenonium bromide, vs culture without compound) | BFU-E expansion (test of GPCR agonists and antagonists) ([4]; mouse BFU-E culture) | nuclear localization of phosphorylated CREB [5] | correction of anemia in vivo [6]
1 | – | – | – | – | – | CC[N+](C)(CC)CCOC(=O)C(O)(c1ccccc1)C1CCCCC1 (stereo not drawn) [oxyphenonium bromide] | 2 to 4 fold | ~2 fold | no difference | ~10 fold | triggered BFU-E expansion | increase in nuclear localization | corrects anemia in vivo
2 | 760 nM | 400 nM | 1500 nM | 4400 nM | reduced brain penetration | CCOC(=O)c1c(C)n(C)c2ccc(OC)c(C[N+]3(C)CCc4cc(OC)ccc4C3)c12.[I-] (stereo not drawn) [Compound G, 2-((3-(ethoxycarbonyl)-5-methoxy-1,2-dimethyl-1H-indol-4-yl)methyl)-6-methoxy-2-methyl-1,2,3,4-tetrahydroisoquinolin-2-ium Iodide] | – | – | – | – | – | – | –
